Experimental findings from publication PMC11372076, “A dual inhibitor of PIP5K1C and PIKfyve prevents SARS-CoV-2 entry into cells” (Experimental & Molecular Medicine, 2024) are described below.

One data set concerns the target PIKFYVE (Homo sapiens, UniProt Q9Y2I7). Description: SelectScreen Kinase Profiling Service (PIPK profiling). It counts as biochemical. Particulars: [ATP] 100 μM; 1 μM (concentration stated for UNI418 only). From the text: UNI418 has a core structure consisting of 4-quinazolinamine (Fig. 1a, green), which is often found in kinase inhibitors. […] The phosphoinositide (PI) system is a crucial regulatory mechanism in membrane trafficking and is tightly regulated through phosphorylation cascades by multiple phosphatidylinositol phosphate kinases (PIPKs)[30]. We hypothesized that UNI418 may inhibit PIPK(s) and performed PIPK profiling analysis. […] To test whether UNI418 interacts with PIP5K1C and PIKfyve, we performed a CETSA, which determines the characteristics of protein stabilization upon ligand binding to the target protein[31]. UNI418- or DMSO-treated cell lysates were incubated at different temperatures, and the presence of the target protein in the soluble fraction was analyzed by Western blotting (Fig. 1c).
Fig. 1 UNI418 specifically targets PIP5K1 and PIKfyve. a Chemical structure of UNI418. The 4-quinazolinamine core is highlighted in green. b Table of the kinase profiling analysis. Inhibition of several kinases was determined at a 1 μM concentration of UNI418 and analyzed by the SelectScreen Kinase Profiling Service (Thermo Fisher Scientific). c Cellular thermal shift assay. Ectopically expressed GFP-PIP5K1C and GFP-PIKfyve were heated to the indicated temperatures with/without UNI418, and the presence of protein in the soluble fraction was analyzed by Western blot analysis. TEXT PRINTED IN THE PICTURE: (b) UNI418: % Inhibition (mean): 11 ([ATP] Tested (μM): 10; Kinase Tested: PI4K2A (PI4K2 alpha)); % Inhibition (mean): 4 ([ATP] Tested (μM): 10; Kinase Tested: PI4K2B (PI4K2 beta)); % Inhibition (mean): -6 ([ATP] Tested (μM): 10; Kinase Tested: PI4KA (PI4K alpha)); % Inhibition (mean): 48 ([ATP] Tested (μM): Km app; Kinase Tested: PI4KB (PI4K beta)); % Inhibition (mean): 20 ([ATP] Tested (μM): 10; Kinase Tested: PIK3C2B (PI3K-C2 beta)); % Inhibition (mean): 22 ([ATP] Tested (μM): 10; Kinase Tested: PIK3C2G (PI3K-C2 gamma)); % Inhibition (mean): 4 ([ATP] Tested (μM): 100; Kinase Tested: PIK3C3 (hVPS34)); % Inhibition (mean): 8 ([ATP] Tested (μM): 10; Kinase Tested: PIK3CA/PIK3R3 (p110 alpha/p55 gamma)); % Inhibition (mean): 7 ([ATP] Tested (μM): 10; Kinase Tested: PIK3CB/PIK3R2 (p110 beta/p85 beta)); % Inhibition (mean): 9 ([ATP] Tested (μM): 10; Kinase Tested: PIP4K2A); % Inhibition (mean): 67 ([ATP] Tested (μM): 10; Kinase Tested: PIP5K1A); % Inhibition (mean): 93 ([ATP] Tested (μM): 10; Kinase Tested: PIP5K1B); % Inhibition (mean): 93 ([ATP] Tested (μM): 10; Kinase Tested: PIP5K1C); % Inhibition (mean): 100 ([ATP] Tested (μM): 100; Kinase Tested: PIKFYVE) | (b) Apilimod: % Inhibition (mean): 100 ([ATP] Tested (μM): 100; Kinase Tested: PIKFYVE) […]

A further data set concerns SARS-CoV-2. Description: microbe, parasite or virus in culture. The following applies: for pEC50: Severe acute respiratory syndrome coronavirus 2, Vero, 48 h, read-out: EC50 (reducing number of spike-positive cells by 50%); for selectivity index (SI), ratio of CC50 to EC50: Vero cells, Day 2. The data set is classed as cell-based, SARS-CoV-2 (hCoV-19/Korea/KCDC06/2020).
The subject of data set [1] is ACE2-mediated endocytosis in HEK293T cells. It counts as cell-based. The following applies: 0.5 μM compound, 20 μg/mL spike-RBD, 2 h.
For another data set, the system named is GFP-PIKfyve. Briefly: Cellular thermal shift assay (CETSA). The data set is classed as cell-based. The following applies: versus DMSO control, Western blot. As to the method:
(§1) The chemically treated cells were heated to 56 °C for 3 min to denature and precipitate nontargeted proteins. The heated cells were immediately snap-frozen in liquid nitrogen overnight. After the cells were frozen and thawed twice, the tubes were briefly vortexed. The resulting cell lysates were subjected to SDS‒PAGE.
(§2) Fig. 1 UNI418 specifically targets PIP5K1 and PIKfyve. a Chemical structure of UNI418. The 4-quinazolinamine core is highlighted in green. b Table of the kinase profiling analysis. Inhibition of several kinases was determined at a 1 μM concentration of UNI418 and analyzed by the SelectScreen Kinase Profiling Service (Thermo Fisher Scientific). c Cellular thermal shift assay. Ectopically expressed GFP-PIP5K1C and GFP-PIKfyve were heated to the indicated temperatures with/without UNI418, and the presence of protein in the soluble fraction was analyzed by Western blot analysis. […]
For orientation: Immunoblotting shows a protein as a band on a membrane.

The test system of the next data set is GFP-PIP5K1C. Briefly: Cellular thermal shift assay (CETSA). It counts as cell-based. The following applies: versus DMSO control, Western blot. The procedure:
as §1, §2

A further data set can be described thus: in vitro. The following applies: African green monkey.

pEC50: −log10 of the molar value.

PIKFYVE, sequence (Q9Y2I7 whole entry): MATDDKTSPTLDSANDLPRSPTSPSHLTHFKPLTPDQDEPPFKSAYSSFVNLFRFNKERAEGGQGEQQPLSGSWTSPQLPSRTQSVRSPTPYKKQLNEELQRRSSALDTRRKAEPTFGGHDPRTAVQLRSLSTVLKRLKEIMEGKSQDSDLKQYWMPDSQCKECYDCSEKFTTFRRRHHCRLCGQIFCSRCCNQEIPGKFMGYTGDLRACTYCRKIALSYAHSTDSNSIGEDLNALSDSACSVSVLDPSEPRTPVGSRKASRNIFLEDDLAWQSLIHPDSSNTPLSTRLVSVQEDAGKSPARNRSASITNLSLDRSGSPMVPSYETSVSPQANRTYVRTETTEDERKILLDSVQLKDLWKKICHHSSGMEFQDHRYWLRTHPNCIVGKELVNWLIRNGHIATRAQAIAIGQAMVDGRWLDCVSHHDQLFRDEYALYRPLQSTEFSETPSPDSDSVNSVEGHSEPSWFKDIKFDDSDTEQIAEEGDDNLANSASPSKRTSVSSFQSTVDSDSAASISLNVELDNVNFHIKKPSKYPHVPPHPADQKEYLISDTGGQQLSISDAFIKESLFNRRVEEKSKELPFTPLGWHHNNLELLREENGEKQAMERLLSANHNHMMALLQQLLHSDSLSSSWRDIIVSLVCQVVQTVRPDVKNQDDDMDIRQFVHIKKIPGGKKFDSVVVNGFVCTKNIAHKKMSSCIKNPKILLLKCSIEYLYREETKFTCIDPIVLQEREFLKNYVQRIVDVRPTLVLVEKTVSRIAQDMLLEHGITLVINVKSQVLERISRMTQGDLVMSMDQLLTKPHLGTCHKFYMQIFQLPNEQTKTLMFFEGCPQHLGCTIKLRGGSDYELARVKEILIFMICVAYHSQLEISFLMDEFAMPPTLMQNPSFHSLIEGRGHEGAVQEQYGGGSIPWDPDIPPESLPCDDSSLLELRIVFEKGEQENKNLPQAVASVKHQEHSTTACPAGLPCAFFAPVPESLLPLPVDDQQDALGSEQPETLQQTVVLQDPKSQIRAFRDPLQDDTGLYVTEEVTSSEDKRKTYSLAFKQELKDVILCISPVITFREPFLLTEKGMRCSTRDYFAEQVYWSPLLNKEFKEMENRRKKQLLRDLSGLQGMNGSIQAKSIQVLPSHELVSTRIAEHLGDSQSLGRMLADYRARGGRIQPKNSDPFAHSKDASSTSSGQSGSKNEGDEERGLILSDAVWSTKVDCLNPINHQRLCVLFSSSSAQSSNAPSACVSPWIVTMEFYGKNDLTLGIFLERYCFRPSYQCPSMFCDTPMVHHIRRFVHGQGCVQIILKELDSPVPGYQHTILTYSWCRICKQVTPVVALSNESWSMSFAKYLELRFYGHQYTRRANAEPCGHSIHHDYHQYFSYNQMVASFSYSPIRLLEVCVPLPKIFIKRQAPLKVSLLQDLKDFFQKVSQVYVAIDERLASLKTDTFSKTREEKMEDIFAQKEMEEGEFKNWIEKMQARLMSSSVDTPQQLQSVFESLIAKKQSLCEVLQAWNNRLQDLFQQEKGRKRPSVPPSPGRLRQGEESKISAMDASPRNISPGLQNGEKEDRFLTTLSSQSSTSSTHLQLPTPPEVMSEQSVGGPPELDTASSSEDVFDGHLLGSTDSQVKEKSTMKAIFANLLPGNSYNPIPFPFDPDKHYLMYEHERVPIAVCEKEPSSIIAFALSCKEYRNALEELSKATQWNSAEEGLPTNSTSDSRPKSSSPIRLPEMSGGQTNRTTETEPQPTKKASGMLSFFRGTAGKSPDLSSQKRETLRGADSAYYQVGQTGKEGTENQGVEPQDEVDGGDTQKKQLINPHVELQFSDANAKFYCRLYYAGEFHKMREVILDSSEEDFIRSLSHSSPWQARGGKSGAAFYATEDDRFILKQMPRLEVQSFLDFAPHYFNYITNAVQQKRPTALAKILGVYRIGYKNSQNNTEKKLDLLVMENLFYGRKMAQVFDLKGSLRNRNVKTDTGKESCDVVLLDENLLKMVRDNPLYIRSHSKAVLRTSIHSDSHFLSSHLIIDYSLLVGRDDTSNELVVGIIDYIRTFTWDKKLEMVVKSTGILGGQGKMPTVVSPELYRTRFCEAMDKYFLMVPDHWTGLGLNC

As to `c1ccc(-c2cc(Nc3nc(-c4ccncc4)nc4ccccc34)n[nH]2)cc1` [UNI418, N -(5-phenyl-1 H -pyrazol-3-yl)-2-(4-pyridinyl)-4-quinazolinamine], at PIKFYVE, at 1 µM the inhibition was 100%. In the data set on SARS-CoV-2, the pEC50 (usually the negative decadic logarithm of the EC50, by convention in mol/L) is 5.85. For the same molecule, in the data set on SARS-CoV-2, the “selectivity index (SI), ratio of CC50 to EC50” value is recorded as 45.6. In data set [1], the “ACE2-mediated endocytosis triggered by spike-RBD” value is given as “successfully inhibited”. Further, the “thermal stabilization of target protein in soluble fraction” value in the data set with GFP-PIKfyve and in the data set with GFP-PIP5K1C was “more stable at higher temperatures” in each case. The same molecule yielded a CC50 in the data set “in vitro” of 62.3 µM.
`Cc1cccc(/C=N/Nc2cc(N3CCOCC3)nc(OCCc3ccccn3)n2)c1` [apilimod]: the inhibition (usually the share of the control response that was lost under treatment) at 1 µM on PIKFYVE amounted to 100%. Also, in the data set with SARS-CoV-2, the pEC50 was 6.52 and the “selectivity index (SI), ratio of CC50 to EC50” value is listed as 272.6. The “ACE2-mediated endocytosis triggered by spike-RBD” value in data set [1] is given as “did not obviously inhibit”. This molecule came in with a CC50 in “in vitro” of 73.6 µM.
